The values below come from US9212209B2, “Screening methods for spinal muscular atrophy” (Indiana University Research and Technology Corporation, priority 2012, dated 2015).

Molecules are shown by their SMILES. Where two headings read alike, the source gives them in different places.

Series [1] deals with SMN2-luciferase reporter. The experiment in a line: SMN2-luciferase reporter assay (clonal HEK-293 SMN2-luc cells). The class given is cell-based, human. The conditions noted are these: for Max. fold increase: cell-based reporter response to known SMN2 modulating compounds; for Active: reporter assay; for Emax: read-out: Max % Activity. As to the method: The reporter cell lines were plated at 50,000 cells per well in 96-well plates and incubated overnight. Compounds were added to each well and incubated at 37° C. overnight. The final DMSO concentration was 0.1%. Luciferase activity was assayed using either STEADYGLO (PROMEGA E2510) or DUALGLO (PROMEGA E2920) luciferase using the WALLAC ENVISION multilabel reader. For detailed assay conditions see Table 2A. All data points were transformed from CPS to percent increase over basal expression in the treated control wells (DMSO or H2O as appropriate).
Plates were sealed with porous paper tape and incubated for 24 hours. […] For comparison, data points were transformed from CPS to percent activation over basal expression in the DMSO treated control wells.
For comparison, all data points are expressed as percent increase over basal luciferase expression in the control cells.

Series [2] relates to SMN-luciferase transcripts. The experiment in a line: qRT-PCR of SMN-luciferase transcripts in SMN2-luc cells. The series is classed as cell-based, human. The conditions noted are these: 24 hours, relative to DMSO, normalized to GAPDH, aclarubicin at 300 nM, words. As to the method: Compounds were tested at three concentrations that display maximal activity in the luciferase assay. Cells were treated as described above for the luciferase assay. Cells were harvested by trypsinization, neutralized with trypsin inhibitor, and washed. RNA was isolated from the cells using TRIZOL Reagent (Invitrogen 15596-026). cDNA was generated using the IMPROM-II Reverse Transcription System (Promega A3801).
The forward primer pair recognizes the exon 5-6 junction, which includes a restriction site that was engineered into the reporter and will exclude amplification of endogenous SMN mRNA. The reverse primers recognize either exon 7 or luciferase for detection of full-length or total SMN-luciferase transcripts respectively. For a reference control, cDNA from the housekeeping gene glyceraldehyde-3-phosphate dehydrogenase (GAPDH) was amplified. The primers used include SMN exon5-forward ([…]) (SEQ ID NO: 3), luciferase-reverse ([…]) (SEQ ID NO: 4), exon7-reverse ([…]) (SEQ ID NO: 5), GAPDH-reverse (G3A) ([…]) (SEQ ID NO: 6) and GAPDH-forward (G3S) ([…]) (SEQ ID NO: 7). qPCR was performed as described in the protocol for iQ SYBRGREEN SUPERMIX (Biorad 170-8882) using an EPPENDORF Mastercycler ep realplex^4 Thermo Cycler. Reactions were incubated for a 10 minute, 94° C. hot start followed by 45 cycles of the following: 94° C. for 45 second, 60° C. for 15 seconds, 72° C. for 45 seconds. Melting curves for each reaction were obtained. Each sample was assayed in triplicate and every plate contained a 5-point cDNA dilution course to calculate amplification efficiency for each primer pair. The Pfaffl method was used to determine the change in transcript levels relative to the DMSO and normalized to GAPDH (Pfaffl, M. W., “A new mathematical model for relative quantification in real-time RT-PCR,” Nucleic Acids Res 2001, 29(9), 3e45).
Based on the new reporter design, it was predicted that this screen could detect increased SMN-luciferase protein levels caused by compounds that stimulate SMN2 transcription, exon 7 inclusion, or by increasing the half-life of the SMN mRNA or protein. Quantitative reverse transcriptase PCR (qRT-PCR) was used to analyze SMN-luciferase mRNAs. All assays used RNA from control and compound-treated SMN2-luc cells and primers pairs were chosen to amplify only the SMN-luciferase derived transcripts (FIG. 4A). A pair of primers were used that specifically detects both full-length (exon 7 included) and Δ7 (exon 7 excluded) SMN-luciferase transcripts (primers 1 and 3). To measure changes in exon 7 splicing efficiency, a primer pair was used that detects only the full-length (exon 7 included) SMN-luciferase transcript (primers 1 and 2).
For each sample, the percent increase in the amount of total SMN-luciferase transcripts (gray bar) and exon 7 included full-length SMN-luciferase transcripts (white bar) was plotted (FIG. 4). Compounds that increase transcription should show increased total SMN-luciferase transcripts (gray bar) with a proportional increase for exon 7 included transcripts (white bar), assuming that proper splicing of exon 7 is not rate limiting. Compounds that stimulate exon 7 inclusion should increase the amount of exon 7 included full-length transcript (white bar) detected with little to no change in the expression of total SMN-luciferase transcripts (gray bar). In these experiments, cells were treated with compound, harvested, and each cell pellet was divided for isolation of RNA and to assay luciferase activity. Each qRT-PCR sample was normalized to the housekeeping gene glyceraldehyde-3-phosphate dehydrogenase (GAPDH). The Pfaffl method was used to calculate the change in the amount of total SMN mRNA and determine whether compound treatments increased SMN transcripts.

A short description of series [3]: Solubility in PBS / aqueous solution. The series is classed as physicochemical. The conditions noted are these: aqueous solution; Table 8, grades; read-out: Solubility in aqueous solution.
Series [4] can be described thus: Liver microsome stability. The conditions noted are these: Table 8.
Setting [5] is: Homo sapiens, HEK293, cell-based reporter, known SMN2 modulating compounds, read-out: EC50.
The mark [6] stands for this setting: Homo sapiens, HEK293, reporter assay, Table 6, read-out: Ec50.
Where [7] appears, read: Homo sapiens, HEK293, reporter assay, Table 6.

`CC[C@@]1(O)C[C@H](O[C@H]2C[C@H](N(C)C)[C@H](O[C@H]3C[C@H](O)[C@H](O[C@H]4CCC(=O)[C@H](C)O4)[C@H](C)O3)[C@H](C)O2)c2c(cc3c(c2O)C(=O)c2c(O)cccc2C3=O)[C@H]1C(=O)OC` [Aclarubicin, aclarubicin, reference compound] showed an EC50 in series [1] (Homo sapiens, HEK293) of 0.298 µM. In series [1], this molecule showed a Max. fold increase of 10 fold. Besides, in series [2], the “exon 7 included full-length SMN-luciferase transcripts” value is “lesser increase” and the “total SMN-luciferase transcripts” value was “potent increase”.
`CC(C(=O)O)c1ccc(N2Cc3ccccc3C2=O)cc1` (stereo not drawn) [Indoprofen, indoprofen, reference compound]: the EC50 in series [1] (setting [5]) came out at 0.46 µM. In series [1], the Max. fold increase came out at 3 fold. Moreover, in series [2], the “exon 7 included full-length SMN-luciferase transcripts” value is on record as “No consistent change” and the “total SMN-luciferase transcripts” value was “No consistent change”.
Regarding `COc1cc2c(c(OC)c1OC)C(c1cc(Cl)ccc1F)C(C)C(=O)N2` (stereo not drawn) [LDN-213773], in series [1] (Table 6), the Active result is recorded as “No”.
On to `COc1cc2c(c(OC)c1OC)C(c1cc(Cl)ccc1F)C(C)C(=O)N2` (stereo not drawn) [LDN-214085], for which the EC50 in series [1] (setting [6]) stood at 6 µM. Further, the Emax in series [1] (setting [7]) was determined as 180%. Moreover, the Active result in series [1] (Table 6) is reported as “Yes”.
In the case of `CC(C)(C)c1cc(NC(=O)c2nc3ccccc3[nH]2)no1` [LDN-214095], the Active result in series [1] (Table 6) is given as “No”.
Regarding `CCCC1C(=O)Nc2cc(OC)c(OC)c(OC)c2C1c1cc(Cl)ccc1F` (stereo not drawn) [LDN-214096], the Active result in series [1] (Table 6) is recorded as “No”.
Turning to `COc1cc2c(c(OC)c1OC)C(c1cc(Cl)ccc1F)N(CCN(C)C)C(=O)N2` (stereo not drawn) [LDN-214097], the Active result in series [1] (Table 6) is given as “No”.
Regarding `O=C(Nc1ncc(C2(O)CCC2)s1)c1nc2ccccc2[nH]1` [LDN-214098], in series [1] (setting [6]), the EC50 was determined as 0.15 µM. Besides, the Emax in series [1] (setting [7]) came out at 200%. The Active result in series [1] (Table 6) is “Yes”. For the same molecule, the solubility in series [3] is over 2000 µM. Moreover, the Stabilityin liver microsomes in series [4] is on record as 59 min.
`CC(/C=C/C(=O)NO)=C\[C@@H](C)C(=O)c1ccc(N(C)C)cc1` [TSA]: in series [2], the “exon 7 included full-length SMN-luciferase transcripts” value was “increased” and the “total SMN-luciferase transcripts” value was “increased”.
As for `NC[C@H]1O[C@H](O[C@H]2[C@H](O)[C@@H](O[C@H]3O[C@H](CO)[C@@H](O)[C@H](N)[C@H]3O)[C@H](N)C[C@@H]2N)[C@H](N)C[C@@H]1O` [Tobramycin, tobramycin, reference compound], the “response of luciferase activity in the reporter cell lines” value in series [1] (SMN1-luc and SMN2-luc cell lines, words) was “no response”. The Max. fold increase result in series [1] was “inactive ^a”. The EC50 entry in series [1] (cell-based reporter, result in words) was “inactive ^a”.
With `CC(/C=C/C(=O)NO)=C\[C@@H](C)C(=O)c1ccc(N(C)C)cc1` [Trichostatin A, trichostatin A, reference compound], the Max. fold increase in series [1] was 15 fold. Further, in series [1] (cell-based reporter, known SMN2 modulating compounds, read-out: EC50), the EC50 came to 0.23 µM.
Regarding `CCCC(CCC)C(=O)O` [Valproic Acid, valproic acid], the EC50 in series [1] (setting [5]) was found to be 10000 µM. Also, in series [1], the Max. fold increase amounted to 2.5 fold. The “exon 7 included full-length SMN-luciferase transcripts” value in series [2] is reported as “increases”; in series [2] (listed as VPA), “increased”. For the same molecule, the entries for the “total SMN-luciferase transcripts” value in series [2] and in series [2] (listed as VPA) were “increases” and “increased”, respectively.
